In the supplement of paper PMC8967900:

What was measured:
Test in all cases: selective drug sensitivity score (sDSS, relative to normal bone marrow) (sDSS (score)); higher = more potent and effective on the cell line relative to normal bone marrow cells
Details in all cases: 72 h
TANOUE = system: TANOUE
KASUMI-9 = system: KASUMI-9
MHH-CALL-2 = system: MHH-CALL-2
ALL-SIL = system: ALL-SIL
RCH-ACV = system: RCH-ACV
COG-LL-319h = system: COG-LL-319h
JURKAT = system: JURKAT
MOLT-16 = system: MOLT-16
697 = system: 697
NALM-16 = system: NALM-16
COG-LL-402h = system: COG-LL-402h
COG-LL-355h = system: COG-LL-355h
COG-LL-394h = system: COG-LL-394h
CCRF-HSB2 = system: CCRF-HSB2
PF-382 = system: PF-382
COG-LL-317 = system: COG-LL-317
SEM cells = system: SEM cells
KASUMI-2 = system: KASUMI-2
MHH-CALL-3 = system: MHH-CALL-3
PEER = system: PEER
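Further: ALL cell lines in 384-well plates, five doses spanning 10,000-fold, each plate scaled between vehicle and 100 µmol/L benzalkonium chloride controls, sDSS an adapted area-under-curve metric.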

SMILES: COc1cc2ncnc(Oc3cccc(NC(=O)Nc4cc(C(C)(C)C(F)(F)F)on4)c3)c2cc1OC (top concentration 10000 nM)
- selective drug sensitivity score (TANOUE): 0
- selective drug sensitivity score (KASUMI-9): 7.5
- selective drug sensitivity score (MHH-CALL-2): 4.2
- selective drug sensitivity score (ALL-SIL): 41.3
- selective drug sensitivity score (RCH-ACV): 13.9
- selective drug sensitivity score (COG-LL-319h): 12.3
- selective drug sensitivity score (JURKAT): 0
- selective drug sensitivity score (MOLT-16): 2.5
- selective drug sensitivity score 697: 10.4
- selective drug sensitivity score (NALM-16): 0
- selective drug sensitivity score (COG-LL-402h): 0.3
- selective drug sensitivity score (COG-LL-355h): 4.9
- selective drug sensitivity score (COG-LL-394h): 3.9
- selective drug sensitivity score (CCRF-HSB2): 23.2
- selective drug sensitivity score (PF-382): 1.2
- selective drug sensitivity score (COG-LL-317): 0
- selective drug sensitivity score (SEM cells): 14.5
- selective drug sensitivity score (KASUMI-2): 5.2
- selective drug sensitivity score (MHH-CALL-3): 0
- selective drug sensitivity score (PEER): 17.8

SMILES: NC(=O)c1cccc2cn(-c3ccc(C4CCCNC4)cc3)nc12 (stereo not given) [Niraparib] (top concentration 10000 nM)
- selective drug sensitivity score (TANOUE): -3.32
- selective drug sensitivity score (KASUMI-9): 5.78
- selective drug sensitivity score (MHH-CALL-2): 3.78
- selective drug sensitivity score (ALL-SIL): 2.88
- selective drug sensitivity score (RCH-ACV): 6.48
- selective drug sensitivity score (COG-LL-319h): 14.2
- selective drug sensitivity score (JURKAT): 0.38
- selective drug sensitivity score (MOLT-16): 4.78
- selective drug sensitivity score 697: 12.9
- selective drug sensitivity score (NALM-16): -2.82
- selective drug sensitivity score (COG-LL-402h): 8.48
- selective drug sensitivity score (COG-LL-355h): 4.68
- selective drug sensitivity score (COG-LL-394h): -2.02
- selective drug sensitivity score (CCRF-HSB2): 5.78
- selective drug sensitivity score (PF-382): -2.12
- selective drug sensitivity score (COG-LL-317): 7.88
- selective drug sensitivity score (SEM cells): 2.98
- selective drug sensitivity score (KASUMI-2): 4.28
- selective drug sensitivity score (MHH-CALL-3): 10.7
- selective drug sensitivity score (PEER): -1.02

SMILES: CC(=O)OC[C@H]1O[C@@H]([S-])[C@H](OC(C)=O)[C@@H](OC(C)=O)[C@@H]1OC(C)=O.CCP(CC)CC.[Au+] [Auranofin] (top concentration 2500 nM)
- selective drug sensitivity score (TANOUE): -1.06
- selective drug sensitivity score (KASUMI-9): 3.94
- selective drug sensitivity score (MHH-CALL-2): 8.14
- selective drug sensitivity score (ALL-SIL): 2.44
- selective drug sensitivity score (RCH-ACV): 3.84
- selective drug sensitivity score (COG-LL-319h): 8.24
- selective drug sensitivity score (JURKAT): -1.76
- selective drug sensitivity score (MOLT-16): 1.74
- selective drug sensitivity score 697: 1.94
- selective drug sensitivity score (NALM-16): -0.56
- selective drug sensitivity score (COG-LL-402h): 7.84
- selective drug sensitivity score (COG-LL-355h): 6.34
- selective drug sensitivity score (COG-LL-394h): 0.14
- selective drug sensitivity score (CCRF-HSB2): -1.86
- selective drug sensitivity score (PF-382): -1.36
- selective drug sensitivity score (COG-LL-317): 3.44
- selective drug sensitivity score (SEM cells): 1.34
- selective drug sensitivity score (KASUMI-2): 0.54
- selective drug sensitivity score (MHH-CALL-3): 4.04
- selective drug sensitivity score (PEER): 0.74

SMILES: CCC/C=C/C=C/C(=O)O[C@H]1/C(=C/C(=O)OC)C[C@H]2C[C@H]([C@@H](C)O)OC(=O)C[C@H](O)C[C@@H]3C[C@H](OC(C)=O)C(C)(C)[C@](O)(C[C@@H]4C/C(=C/C(=O)OC)C[C@H](/C=C/C(C)(C)[C@]1(O)O2)O4)O3 [Bryostatin_1] (top concentration 100 nM)
- selective drug sensitivity score (TANOUE): -6.82
- selective drug sensitivity score (KASUMI-9): 25.1
- selective drug sensitivity score (MHH-CALL-2): 8.68
- selective drug sensitivity score (ALL-SIL): -7.12
- selective drug sensitivity score (RCH-ACV): -7.12
- selective drug sensitivity score (COG-LL-319h): -7.12
- selective drug sensitivity score (JURKAT): -0.02
- selective drug sensitivity score (MOLT-16): -7.12
- selective drug sensitivity score 697: 12
- selective drug sensitivity score (NALM-16): -6.92
- selective drug sensitivity score (COG-LL-402h): -5.72
- selective drug sensitivity score (COG-LL-355h): -7.12
- selective drug sensitivity score (COG-LL-394h): -5.92
- selective drug sensitivity score (CCRF-HSB2): 20.4
- selective drug sensitivity score (PF-382): 4.18
- selective drug sensitivity score (COG-LL-317): -6.82
- selective drug sensitivity score (SEM cells): -7.12
- selective drug sensitivity score (KASUMI-2): -7.12
- selective drug sensitivity score (MHH-CALL-3): -7.12
- selective drug sensitivity score (PEER): -7.12

SMILES: COc1c(OCCCN2CCOCC2)ccc2c1N=C(NC(=O)c1cnc(N)nc1)N1CCN=C21 [Copanlisib] (top concentration 1000 nM)
- selective drug sensitivity score (TANOUE): -6.52
- selective drug sensitivity score (KASUMI-9): 5.98
- selective drug sensitivity score (MHH-CALL-2): 6.18
- selective drug sensitivity score (ALL-SIL): 0.38
- selective drug sensitivity score (RCH-ACV): 22.2
- selective drug sensitivity score (COG-LL-319h): 3.18
- selective drug sensitivity score (JURKAT): -3.62
- selective drug sensitivity score (MOLT-16): 7.68
- selective drug sensitivity score 697: 3.48
- selective drug sensitivity score (NALM-16): 2.58
- selective drug sensitivity score (COG-LL-402h): 8.88
- selective drug sensitivity score (COG-LL-355h): 12.2
- selective drug sensitivity score (COG-LL-394h): -0.82
- selective drug sensitivity score (CCRF-HSB2): 1.98
- selective drug sensitivity score (PF-382): 2.58
- selective drug sensitivity score (COG-LL-317): 6.08
- selective drug sensitivity score (SEM cells): 4.18
- selective drug sensitivity score (KASUMI-2): 4.18
- selective drug sensitivity score (MHH-CALL-3): -0.62
- selective drug sensitivity score (PEER): -5.82

SMILES: CO[C@H]1CC[C@H](N2C(=O)CNc3ncc(-c4ccc(C(C)(C)O)nc4)nc32)CC1 [CC-223] (top concentration 10000 nM)
- selective drug sensitivity score (TANOUE): -3.88
- selective drug sensitivity score (KASUMI-9): 5.12
- selective drug sensitivity score (MHH-CALL-2): 6.42
- selective drug sensitivity score (ALL-SIL): 1.32
- selective drug sensitivity score (RCH-ACV): 9.62
- selective drug sensitivity score (COG-LL-319h): 5.12
- selective drug sensitivity score (JURKAT): 0.02
- selective drug sensitivity score (MOLT-16): 4.12
- selective drug sensitivity score 697: 5.02
- selective drug sensitivity score (NALM-16): 0.72
- selective drug sensitivity score (COG-LL-402h): 2.92
- selective drug sensitivity score (COG-LL-355h): 1.12
- selective drug sensitivity score (COG-LL-394h): -2.28
- selective drug sensitivity score (CCRF-HSB2): 2.62
- selective drug sensitivity score (PF-382): 1.42
- selective drug sensitivity score (COG-LL-317): -0.48
- selective drug sensitivity score (SEM cells): 0.72
- selective drug sensitivity score (KASUMI-2): 7.92
- selective drug sensitivity score (MHH-CALL-3): 8.82
- selective drug sensitivity score (PEER): 1.02

SMILES: CC#CC(=O)N1CC[C@@H](n2c(=O)n(-c3ccc(Oc4ccccc4)cc3)c3c(N)ncnc32)C1 [Tirabrutinib] (top concentration 1000 nM)
- selective drug sensitivity score (TANOUE): 0
- selective drug sensitivity score (KASUMI-9): 0
- selective drug sensitivity score (MHH-CALL-2): 0
- selective drug sensitivity score (ALL-SIL): 0
- selective drug sensitivity score (RCH-ACV): 11
- selective drug sensitivity score (COG-LL-319h): 3.7
- selective drug sensitivity score (JURKAT): 0
- selective drug sensitivity score (MOLT-16): 0.9
- selective drug sensitivity score 697: 0
- selective drug sensitivity score (NALM-16): 0
- selective drug sensitivity score (COG-LL-402h): 5.2
- selective drug sensitivity score (COG-LL-355h): 0
- selective drug sensitivity score (COG-LL-394h): 0
- selective drug sensitivity score (CCRF-HSB2): 0.8
- selective drug sensitivity score (PF-382): 0
- selective drug sensitivity score (COG-LL-317): 0
- selective drug sensitivity score (SEM cells): 1.1
- selective drug sensitivity score (KASUMI-2): 2.9
- selective drug sensitivity score (MHH-CALL-3): 1.7
- selective drug sensitivity score (PEER): 0

SMILES: COc1ccc(CCc2nc3cc(-c4c(C)noc4C)ccc3n2C[C@H](C)N2CCOCC2)cc1Cl [SGC-CBP30] (top concentration 25000 nM)
- selective drug sensitivity score (TANOUE): -3.12
- selective drug sensitivity score (KASUMI-9): 5.58
- selective drug sensitivity score (MHH-CALL-2): 5.88
- selective drug sensitivity score (ALL-SIL): 4.68
- selective drug sensitivity score (RCH-ACV): 7.88
- selective drug sensitivity score (COG-LL-319h): 16.4
- selective drug sensitivity score (JURKAT): 2.18
- selective drug sensitivity score (MOLT-16): 6.58
- selective drug sensitivity score 697: 2.48
- selective drug sensitivity score (NALM-16): 0.48
- selective drug sensitivity score (COG-LL-402h): 7.78
- selective drug sensitivity score (COG-LL-355h): 9.88
- selective drug sensitivity score (COG-LL-394h): 5.38
- selective drug sensitivity score (CCRF-HSB2): 2.38
- selective drug sensitivity score (PF-382): 3.08
- selective drug sensitivity score (COG-LL-317): 5.98
- selective drug sensitivity score (SEM cells): 6.48
- selective drug sensitivity score (KASUMI-2): -2.12
- selective drug sensitivity score (MHH-CALL-3): 9.48
- selective drug sensitivity score (PEER): 4.08

SMILES: CC(=O)Nc1ccc(C(=O)Nc2ccccc2N)cc1 [Tacedinaline] (top concentration 1000 nM)
- selective drug sensitivity score (TANOUE): -0.02
- selective drug sensitivity score (KASUMI-9): 4.38
- selective drug sensitivity score (MHH-CALL-2): 7.68
- selective drug sensitivity score (ALL-SIL): 6.08
- selective drug sensitivity score (RCH-ACV): 0.48
- selective drug sensitivity score (COG-LL-319h): 1.98
- selective drug sensitivity score (JURKAT): 0.68
- selective drug sensitivity score (MOLT-16): -0.02
- selective drug sensitivity score 697: 1.88
- selective drug sensitivity score (NALM-16): -0.02
- selective drug sensitivity score (COG-LL-402h): 0.38
- selective drug sensitivity score (COG-LL-355h): -0.02
- selective drug sensitivity score (COG-LL-394h): -0.02
- selective drug sensitivity score (CCRF-HSB2): 2.98
- selective drug sensitivity score (PF-382): -0.02
- selective drug sensitivity score (COG-LL-317): -0.02
- selective drug sensitivity score (SEM cells): 4.08
- selective drug sensitivity score (KASUMI-2): -0.02
- selective drug sensitivity score (MHH-CALL-3): 1.58
- selective drug sensitivity score (PEER): 0.68
